Results on 1 compound are retold here after patent publication US20060258713A1, “Treatment of pain” (Wyeth, priority 2005, published 2006).

The test system of this experiment is Male Sprague-Dawley rats. Put plainly: L5 spinal nerve ligation (SNL) tactile allodynia model, von Frey thresholds. It is filed as in vivo, rat. The conditions noted are these: 0.3, 1 or 3 mg/kg i.p., thresholds up to 60, 180 and 300 minutes after dosing, reversal of tactile allodynia, FIG. 1. How it is done: Compound 1, (7-(2,6-dichlorophenyl)-5-fluoro-2,3-dihydrobenzofuran-2-yl)methanamine, was obtained from Wyeth compound repository and gabapentin was purchased from Toronto Research Chemicals (Ontario, Canada) and […]. Compound 1 was dissolved in sterile saline and gabapentin was suspended in 2% Tween 80 in 0.5% methylcellulose and sterile water. All compounds were administered intraperitoneally (i.p.).
Male Sprague-Dawley rats (125-150 g, Harlan; Indianapolis, Ind.) were individually housed on bedding. For all studies animals were maintained in climate-controlled rooms on a 12-hour light/dark cycle (lights on at 0630) with food and water available ad libitum. […]
Assessment of Tactile Allodynia (Tactile Sensitivity): Tactile thresholds were assessed using a series of calibrated von Frey monofilaments (Stoelting; Wood Dale, Ill.). The threshold that produced a 50% likelihood of a withdrawal was determined using the up-down method, as previously described (Chaplan et al., 1994).
Animals were placed in elevated wire cages and allowed 45-60 minutes to acclimate to the testing room. […] The lowest force that evoked a brisk withdrawal response to the stimuli determined the pain threshold. Tactile thresholds were determined on the day prior to surgery and rats with baseline thresholds <10 g force were excluded from studies. […]

`NCC1Cc2cc(F)cc(-c3c(Cl)cccc3Cl)c2O1` (stereo not shown) [Compound 1, (7-(2,6-dichlorophenyl)-5-fluoro-2,3-dihydrobenzofuran-2-yl)methanamine]: the “effectiveness in the tactile allodynia model” value is “effectiveness”.
